Laboratory results taken from patent US6358885B1, “Substituted phenylheterocyclic herbicides” (Mississippi State University, priority 1992, dated 2002).

Legend:
[1] = system: duck salad; experiment: Test D paddy water application plant response rating 0 to 100; format: in vivo, Heteranthera limosa; conditions: 0 to 100 scale, approx. 21 days
Description: (§1) Plastic pots were partially filled with silt loam soil. The soil was then saturated with water. […] After planting, water levels were raised to 3 cm above the soil surface and maintained at this level throughout the test. Chemical treatments were formulated in a non-phytotoxic solvent and applied directly to the paddy water. Treated plants and controls were maintained in a greenhouse for approximately 21 days, after which all species were compared to controls and visually evaluated. […] A dash (-) response means no test result.

[2] = system: downy brome; experiment: Test F preemergence/postemergence greenhouse plant response rating 0 to 100; format: in vivo, Bromus tectorum; conditions: POSTEMERGENCE, 0 to 100 scale
Description: (§2) Compounds evaluated in this test were formulated in a non-phytoxic solvent and applied to the soil surface before plant seedlings emerged (preemergence application) and to plants that were in the one-to-four leaf stage (postemergence application). A sandy loam soil was used for the preemergence test while a mixture of sandy loam soil and greenhouse potting mix in a 60:40 ratio was used for the postemergence test. Test compounds were applied within approximately one day after planting seeds for the preemergence test. Plantings of these crops and weed species were adjusted to produce plants of appropriate size for the postemergence test. All plant species were grown using normal greenhouse practices. Crop and weed species include winter barley (Hordeum vulgare cv. ‘Igri’), blackgrass (Alopecurus myosuroides), chickweed (Stellaria media), downy brome (Bromus tectorum), field violet (Viola arvensis), galium (Galium aparine), green foxtail (Setaria viridis), kochia (Kochia scoparia), lambsquarters (Chenopodium album), speedwell (Veronica persica), rape (Brassica napus), ryegrass (Lolium multiflorum), sugar beet (Beta vulgaris cv. ‘USl’), sunflower (Helianthus annuus cv. ‘Russian Giant’), spring wheat (Triticum aestivum cv. ‘ERA’), winter wheat (Triticum aestivum cv. ‘Talent’), wild buckwheat (Polygonum convolvulus), wild mustard (Sinapis arvensis), wild oat (Avena fatua), and wild radish (Raphanus raphanistrum). Blackgrass, galium and wild oat were treated at two growth stages. […] Treated plants and untreated controls were maintained in a greenhouse for approximately 21 to 28 days, after which all treated plants were compared to untreated controls and visually evaluated. […] A dash response (-) means no test result.

[3] = system: umbrella sedge; experiment: Test D paddy water application plant response rating 0 to 100; format: in vivo, Cyperus difformis; conditions: 0 to 100 scale, approx. 21 days
Description: as §1

[4] = system: wild buckwheat; experiment: Test F preemergence/postemergence greenhouse plant response rating 0 to 100; format: in vivo, Polygonum convolvulus; conditions: POSTEMERGENCE, 0 to 100 scale
Description: as §2

[5] = system: waterchestnut; experiment: Test D paddy water application plant response rating 0 to 100; format: in vivo, Eleocharis spp.; conditions: 0 to 100 scale, approx. 21 days
Description: as §1

[6] = system: kochia; experiment: Test F preemergence/postemergence greenhouse plant response rating 0 to 100; format: in vivo, Kochia scoparia; conditions: POSTEMERGENCE, 0 to 100 scale
Description: as §2

[7] = system: arrowhead; experiment: Test D paddy water application plant response rating 0 to 100; format: in vivo, Sagittaria spp.; conditions: 0 to 100 scale, approx. 21 days
Description: as §1

[8] = system: Japonica rice; experiment: Test E paddy water application plant response rating 0 to 100; format: in vivo, oryza sativa; conditions: Flood, 0 to 100 scale, approx. 21 days
Description: (§3) Plastic pots were partially filled with silt loam soil. […] At testing, the water level for all plantings was raised to 2 cm above the soil surface. Chemical treatments were formulated in a non-phytotoxic solvent and applied directly to the paddy water. Treated plants and controls were maintained in a greenhouse for approximately 21 days, after which all species were compared to controls and visually evaluated. […] A dash (-) response means no test result.

[9] = system: barnyardgrass; experiment: Test D paddy water application plant response rating 0 to 100; format: in vivo, Echinochloa crus-galli; conditions: 0 to 100 scale, approx. 21 days
Description: as §1

[10] = system: rape; experiment: Test F preemergence/postemergence greenhouse plant response rating 0 to 100; format: in vivo, Brassica napus; conditions: POSTEMERGENCE, 0 to 100 scale
Description: as §2

[11] = system: Japonica rice; experiment: Test D paddy water application plant response rating 0 to 100; format: in vivo, Oryza sativa; conditions: 0 to 100 scale, approx. 21 days
Description: as §1

[12] = system: barnyardgrass; experiment: Test E paddy water application plant response rating 0 to 100; format: in vivo, Echinochloa crus-galli; conditions: Flood, 0 to 100 scale, approx. 21 days
Description: as §3

[13] = system: sugar beet; experiment: Test F preemergence/postemergence greenhouse plant response rating 0 to 100; format: in vivo, Beta vulgaris cv. ‘USl’; conditions: POSTEMERGENCE, 0 to 100 scale
Description: as §2

[14] = system: sunflower; experiment: as above; format: in vivo, Helianthus annuus cv. ‘Russian Giant’; conditions: POSTEMERGENCE, 0 to 100 scale
Description: as §2

[15] = system: wild mustard; experiment: as above; format: in vivo, Sinapis arvensis; conditions: POSTEMERGENCE, 0 to 100 scale
Description: as §2

## C#CC(C)Oc1cc(-c2nn3c(c2Cl)CCCC3)c(F)cc1Cl (centres unmarked) [Compound 36]
[1]; Rate 4 g/ha
  Duck salad plant response rating: 0
[1]; Rate 8 g/ha
  Duck salad plant response rating: 0
[1]; Rate 16 g/ha
  Duck salad plant response rating: 20
[1]; Rate 32 g/ha
  Duck salad plant response rating: 30
[1]; Rate 64 g/ha
  Duck salad plant response rating: 60
[2]; Rate 4 g/ha
  Downy brome plant response rating: 0
[2]; Rate 8 g/ha
  Downy brome plant response rating: 0
[2]; Rate 16 g/ha
  Downy brome plant response rating: 0
[2]; Rate 32 g/ha
  Downy brome plant response rating: 5
[3]; Rate 4 g/ha
  Umbrella sedge plant response rating: 0
[3]; Rate 8 g/ha
  Umbrella sedge plant response rating: 0
[3]; Rate 16 g/ha
  Umbrella sedge plant response rating: 60
[3]; Rate 32 g/ha
  Umbrella sedge plant response rating: 70
[3]; Rate 64 g/ha
  Umbrella sedge plant response rating: 80
[4]; Rate 16 g/ha
  Wild buckwheat plant response rating: 100
[4]; Rate 32 g/ha
  Wild buckwheat plant response rating: 100
[5]; Rate 4 g/ha
  Waterchestnut plant response rating: 10
[5]; Rate 8 g/ha
  Waterchestnut plant response rating: 10
[5]; Rate 16 g/ha
  Waterchestnut plant response rating: 20
[5]; Rate 32 g/ha
  Waterchestnut plant response rating: 20
[5]; Rate 64 g/ha
  Waterchestnut plant response rating: 20
[6]; Rate 4 g/ha
  Kochia plant response rating: 20
[6]; Rate 8 g/ha
  Kochia plant response rating: 60
[6]; Rate 16 g/ha
  Kochia plant response rating: 60
[6]; Rate 32 g/ha
  Kochia plant response rating: 100
[7]; Rate 4 g/ha
  Arrowhead plant response rating: 0
[7]; Rate 8 g/ha
  Arrowhead plant response rating: 0
[7]; Rate 16 g/ha
  Arrowhead plant response rating: 0
[7]; Rate 32 g/ha
  Arrowhead plant response rating: 0
[7]; Rate 64 g/ha
  Arrowhead plant response rating: 0
[8]; Rate 8 g/ha
  Japonica 1 plant response rating: 15
  Japonica 2 plant response rating: 10
[8]; Rate 16 g/ha
  Japonica 1 plant response rating: 20
  Japonica 2 plant response rating: 0
[8]; Rate 32 g/ha
  Japonica 1 plant response rating: 20
  Japonica 2 plant response rating: 15
[8]; Rate 64 g/ha
  Japonica 1 plant response rating: 25
  Japonica 2 plant response rating: 15
[8]; Rate 125 g/ha
  Japonica 1 plant response rating: 25
  Japonica 2 plant response rating: 20
[9]; Rate 4 g/ha
  Barnyardgrass 2 plant response rating: 30
[9]; Rate 8 g/ha
  Barnyardgrass 2 plant response rating: 65
[9]; Rate 16 g/ha
  Barnyardgrass 2 plant response rating: 80
[9]; Rate 32 g/ha
  Barnyardgrass 2 plant response rating: 100
[9]; Rate 64 g/ha
  Barnyardgrass 2 plant response rating: 100
[10]; Rate 8 g/ha
  Rape plant response rating: 40
[10]; Rate 16 g/ha
  Rape plant response rating: 100
[10]; Rate 32 g/ha
  Rape plant response rating: 100
[11]; Rate 4 g/ha
  Japonica rice plant response rating: 10
[11]; Rate 8 g/ha
  Japonica rice plant response rating: 10
[11]; Rate 16 g/ha
  Japonica rice plant response rating: 15
[11]; Rate 32 g/ha
  Japonica rice plant response rating: 20
[11]; Rate 64 g/ha
  Japonica rice plant response rating: 25
[12]; Rate 8 g/ha
  Barnyardgrass 2 plant response rating: 30
  Barnyardgrass 3 plant response rating: 30
[12]; Rate 16 g/ha
  Barnyardgrass 2 plant response rating: 40
  Barnyardgrass 3 plant response rating: 35
[12]; Rate 32 g/ha
  Barnyardgrass 2 plant response rating: 55
  Barnyardgrass 3 plant response rating: 40
[12]; Rate 64 g/ha
  Barnyardgrass 2 plant response rating: 65
  Barnyardgrass 3 plant response rating: 50
[12]; Rate 125 g/ha
  Barnyardgrass 2 plant response rating: 100
  Barnyardgrass 3 plant response rating: 75
[13]; Rate 4 g/ha
  Sugar beet plant response rating: 100
[13]; Rate 8 g/ha
  Sugar beet plant response rating: 100
[13]; Rate 16 g/ha
  Sugar beet plant response rating: 100
[13]; Rate 32 g/ha
  Sugar beet plant response rating: 100
[14]; Rate 4 g/ha
  Sunflower plant response rating: 0
[14]; Rate 8 g/ha
  Sunflower plant response rating: 40
[14]; Rate 16 g/ha
  Sunflower plant response rating: 50
[14]; Rate 32 g/ha
  Sunflower plant response rating: 60
[15]; Rate 4 g/ha
  Wild mustard plant response rating: 100
[15]; Rate 8 g/ha
  Wild mustard plant response rating: 100
[15]; Rate 16 g/ha
  Wild mustard plant response rating: 100
[15]; Rate 32 g/ha
  Wild mustard plant response rating: 100

## CCOC(=O)COc1cc(-c2nn3c(c2Cl)CCCC3)c(F)cc1Cl [Compound 42]
[2]; Rate 2 g/ha
  Downy brome plant response rating: 0
[2]; Rate 4 g/ha
  Downy brome plant response rating: 0
[2]; Rate 8 g/ha
  Downy brome plant response rating: 0
[2]; Rate 16 g/ha
  Downy brome plant response rating: 0
[2]; Rate 32 g/ha
  Downy brome plant response rating: 0
[4]; Rate 2 g/ha
  Wild buckwheat plant response rating: 60
[4]; Rate 4 g/ha
  Wild buckwheat plant response rating: 60
[4]; Rate 8 g/ha
  Wild buckwheat plant response rating: 100
[4]; Rate 16 g/ha
  Wild buckwheat plant response rating: 100
[6]; Rate 2 g/ha
  Kochia plant response rating: 75
[6]; Rate 4 g/ha
  Kochia plant response rating: 80
[6]; Rate 8 g/ha
  Kochia plant response rating: 80
[6]; Rate 16 g/ha
  Kochia plant response rating: 100
[6]; Rate 32 g/ha
  Kochia plant response rating: 100
[10]; Rate 2 g/ha
  Rape plant response rating: 0
[10]; Rate 4 g/ha
  Rape plant response rating: 20
[10]; Rate 8 g/ha
  Rape plant response rating: 40
[10]; Rate 16 g/ha
  Rape plant response rating: 70
[10]; Rate 32 g/ha
  Rape plant response rating: 100
[13]; Rate 2 g/ha
  Sugar beet plant response rating: 100
[13]; Rate 8 g/ha
  Sugar beet plant response rating: 100
[13]; Rate 16 g/ha
  Sugar beet plant response rating: 100
[13]; Rate 32 g/ha
  Sugar beet plant response rating: 100
[14]; Rate 2 g/ha
  Sunflower plant response rating: 0
[14]; Rate 4 g/ha
  Sunflower plant response rating: 20
[14]; Rate 8 g/ha
  Sunflower plant response rating: 30
[14]; Rate 16 g/ha
  Sunflower plant response rating: 60
[14]; Rate 32 g/ha
  Sunflower plant response rating: 100
[15]; Rate 2 g/ha
  Wild mustard plant response rating: 40
[15]; Rate 4 g/ha
  Wild mustard plant response rating: 100
[15]; Rate 16 g/ha
  Wild mustard plant response rating: 100
[15]; Rate 32 g/ha
  Wild mustard plant response rating: 100

## C#CC(C)N1C(=O)COc2cc(F)c(-c3nn4c(c3Cl)CCCC4)cc21 (centres unmarked) [Compound 50]
[2]; Rate 16 g/ha
  Downy brome plant response rating: 0
[2]; Rate 32 g/ha
  Downy brome plant response rating: 0
[2]; Rate 64 g/ha
  Downy brome plant response rating: 0
[2]; Rate 125 g/ha
  Downy brome plant response rating: 0
[4]; Rate 16 g/ha
  Wild buckwheat plant response rating: 40
[4]; Rate 32 g/ha
  Wild buckwheat plant response rating: 100
[4]; Rate 64 g/ha
  Wild buckwheat plant response rating: 100
[4]; Rate 125 g/ha
  Wild buckwheat plant response rating: 100
[6]; Rate 16 g/ha
  Kochia plant response rating: 100
[6]; Rate 32 g/ha
  Kochia plant response rating: 100
[6]; Rate 64 g/ha
  Kochia plant response rating: 100
[6]; Rate 125 g/ha
  Kochia plant response rating: 100
[8]; Rate 8 g/ha
  Japonica 1 plant response rating: 0
  Japonica 2 plant response rating: 15
[8]; Rate 16 g/ha
  Japonica 1 plant response rating: 20
  Japonica 2 plant response rating: 20
[8]; Rate 32 g/ha
  Japonica 1 plant response rating: 40
  Japonica 2 plant response rating: 30
[8]; Rate 64 g/ha
  Japonica 1 plant response rating: 50
  Japonica 2 plant response rating: 35
[8]; Rate 125 g/ha
  Japonica 1 plant response rating: 75
  Japonica 2 plant response rating: 45
[10]; Rate 16 g/ha
  Rape plant response rating: 100
[10]; Rate 32 g/ha
  Rape plant response rating: 100
[10]; Rate 64 g/ha
  Rape plant response rating: 100
[10]; Rate 125 g/ha
  Rape plant response rating: 100
[12]; Rate 8 g/ha
  Barnyardgrass 2 plant response rating: 15
  Barnyardgrass 3 plant response rating: 10
[12]; Rate 16 g/ha
  Barnyardgrass 2 plant response rating: 15
  Barnyardgrass 3 plant response rating: 15
[12]; Rate 32 g/ha
  Barnyardgrass 2 plant response rating: 25
  Barnyardgrass 3 plant response rating: 20
[12]; Rate 64 g/ha
  Barnyardgrass 2 plant response rating: 35
  Barnyardgrass 3 plant response rating: 35
[12]; Rate 125 g/ha
  Barnyardgrass 2 plant response rating: 55
  Barnyardgrass 3 plant response rating: 60
[13]; Rate 16 g/ha
  Sugar beet plant response rating: 100
[13]; Rate 32 g/ha
  Sugar beet plant response rating: 100
[13]; Rate 64 g/ha
  Sugar beet plant response rating: 100
[13]; Rate 125 g/ha
  Sugar beet plant response rating: 100
[14]; Rate 16 g/ha
  Sunflower plant response rating: 40
[14]; Rate 32 g/ha
  Sunflower plant response rating: 60
[14]; Rate 64 g/ha
  Sunflower plant response rating: 60
[14]; Rate 125 g/ha
  Sunflower plant response rating: 100
[15]; Rate 16 g/ha
  Wild mustard plant response rating: 70
[15]; Rate 32 g/ha
  Wild mustard plant response rating: 70
[15]; Rate 64 g/ha
  Wild mustard plant response rating: 100
[15]; Rate 125 g/ha
  Wild mustard plant response rating: 100
